SMILES strings stand for the structures. Values joined by “and” are separate entries in the source; they are usually repeats but may differ in a detail not shown here. Identical values can stand only once. Inconclusive results are not listed. Active and inactive are the calls of the source. How the calls were made is not given here.

This assay concerns C. albicans CaCi-8 + fluconazole, Alamar Blue growth, 48 h. In words: resistant C. albicans growth inhibition with fluconazole, dose response, CaCi-8 strain, Alamar Blue fluorescence (AID 2423).
A word on the EC50: it is the concentration that produces a half-maximal response. Regarding `COc1ccc(CCNc2ncnc3sc(C)cc23)cc1OC`, the EC50 was 1610 nM.
With `COc1ccccc1N1CCN(Cc2cc(Br)c(O)c3ncccc23)CC1`, the EC50 is 4490 nM.
`O=C(Nc1nnc(-c2ccncc2)o1)c1ccc2ccccc2c1`: the concentration giving a half-maximal response (EC50) was 1440 nM.
On to `COc1ccc(C(=O)N2c3ccccc3C=CC2C#N)cc1` (configuration not stated), for which the EC50 was 1760 nM.
With `COc1ccc(NC(=O)Nc2nc3c(s2)CCCC3)cc1`, the EC50 was 2740 nM.
In the case of `Cc1nc(NC(=O)c2c(-c3ccccc3)noc2C)sc1C(=O)N(C)C`, the EC50 is 16300 nM.
Consider `Cc1cc(C(C#N)c2ccccc2F)n2ncnc2n1` (configuration not stated), for which the EC50 is 895 nM.
The figure for `CCCCC(=O)NC(c1ccc(N(C)C)cc1)c1ccc2cccnc2c1O` (configuration not stated) is 707 nM.
`O=[N+]([O-])c1cc(/C=N/Nc2nc3ccccc3[nH]2)c(O)cc1O`: the EC50 is 6220 nM.
The figure for `COc1ccccc1NC(c1cccnc1)c1ccc2cccnc2c1O` (configuration not stated) is 14900 nM.
Take `CCOC(=O)Cc1csc(NC(=O)CSc2nnc(-c3ccncc3)o2)n1`: the EC50 was below 120 nM.
In the case of `CCN1/C(=C/c2sc(-c3ccccc3C)c[n+]2C)Sc2ccccc21`, the EC50 was 289 nM.
On to `COCc1nnc(NC(=O)c2ccc(S(=O)(=O)N3CCCCCC3)cc2)o1`, for which the concentration giving a half-maximal response (EC50) was 12900 nM.
As to `CC1(C)COCN1S(=O)(=O)c1ccc(C(=O)Nc2nnc(-c3ccc(Cl)s3)o2)cc1`, the EC50 was 484 nM.
The figure for `Oc1cccc(Nc2ncnc3c2oc2ccccc23)c1` is 6650 nM.
`CCOc1ccc2nc(N=NC3=C(O)CC(C)(C)CC3=O)sc2c1`: the EC50 is > 16000 nM (inactive).
Consider `O=[N+]([O-])c1ccc(O)c2ncccc12`, for which the EC50 is 681 nM.
In the case of `Oc1c(CN2CCc3ccccc3C2)cc(Cl)c2cccnc12`, the EC50 is 849 nM.
For the compound `COc1cc(NS(=O)(=O)c2ccc3ccccc3c2)c2ncccc2c1`, the EC50 is 2560 nM.
`Cc1ccc2nc(N3C(=O)C(O)=C(C(=O)c4ccco4)C3c3ccc(C)o3)sc2c1` (configuration not stated): the EC50 is 131 nM.
To `O=C(CSCc1ccc(Cl)cc1)Nc1cc([N+](=O)[O-])ccc1O` belongs > 15000 nM (inactive); to `O=C(N/N=C/c1sc(N2CCOCC2)nc1-c1ccccc1)c1cccc(S(=O)(=O)N2CCCC2)c1`, 2160 nM.
In the case of `CCNc1nc(NC(C)C)nc(NC(C)(C)C)n1`, the EC50 is 1400 nM.
The figure for `CCN(c1ccccc1)S(=O)(=O)c1ccc(C(=O)Nc2nnc(C3CC3)o2)cc1` is 2220 nM; for `Cc1ccc(C2C3CSCC=C3C(C#N)=C(N)C2(C#N)C#N)cc1` (configuration not stated) it is 16300 nM.
On to `COc1ccc(OC)c2[nH]c(C(=O)N/N=C/c3ccccc3O)cc12`, for which the EC50 is 914 nM.
With `O=S1(=O)N=C(Nc2ccc(N3CCOCC3)cc2)c2ccccc21`, the EC50 is > 16000 nM (inactive).
As for `Cc1ccc(-c2cc(-c3ccc(C)cc3)[n+](C)o2)cc1`, the EC50 was > 16000 nM (inactive).
To `S=C(Nc1ccccc1)Nc1nc2ccccc2n1CCOc1ccccc1` belongs 2000 nM.
`O=[N+]([O-])c1cc(Cl)c(O)c2ncccc12`: the EC50 is 344 nM.
With `c1csc(CNc2ncnc3sccc23)c1`, the EC50 is 1760 nM.
For `CC(=O)Nc1cccc(NC(=O)Nc2cccc(F)c2)c1`, the EC50 was > 15000 nM (inactive).
Regarding `O=C(COc1ccc(F)cc1)Nc1nc(-c2ccccn2)cs1`, the EC50 was 2230 nM.
The figure for `Cc1c(OCC(=O)NCC(O)c2ccccc2)ccc2c(-c3ccccc3)cc(=O)oc12` (configuration not stated) is 1260 nM; for `OCc1ccnc2c(O)cccc12` it is > 16000 nM (inactive); for `CC(=O)Nc1cccc(NC(=O)C2CCCN2C(=O)Nc2ccc(Cl)cc2)c1` (configuration not stated) it is > 16000 nM (inactive).
To `CCOc1ccccc1C(=O)N/N=C/c1ccoc1` belongs 2180 nM; to `O=[N+]([O-])c1cc(O)c2ncccc2c1`, 763 nM; to `CCOC(=O)c1[nH]c2ccc(F)cc2c1NC(=O)c1ccccc1C(=O)O`, > 15000 nM (inactive).
Take `CCN1/C(=C/c2ccc3cc(C)ccc3[n+]2CC)Sc2ccc3sccc3c21`: the EC50 is below 120 nM.
To `Cc1onc(-c2c(Cl)cccc2Cl)c1C(=O)N/N=C(\N)COc1ccc(Cl)cc1` belongs 1700 nM; to `O=C(Cn1c2ccc(F)cc2c2nc3n(c(=O)c21)CCS3)N1CCCC1`, > 16000 nM (inactive); to `O=C(Cc1cnn(-c2ccccc2)c1)c1ccc(O)c(O)c1O`, 8400 nM.
With `O=Cc1ccc(O)c2ncccc12`, the EC50 is 1450 nM.
Take `c1ccc(CC2CCN(C3=Nc4cccc5cccc3c45)CC2)cc1`: the EC50 is 4400 nM.
As to `COc1cccc(CN2C(=O)C3(C(C#N)=C(N)OC4=C3C(=O)CCC4)c3ccccc32)c1` (configuration not stated), the EC50 was 2150 nM.
Regarding `COc1ccc(OC)c(C2C(C(=O)c3cc4ccccc4o3)=C(O)C(=O)N2c2cc(C)on2)c1` (configuration not stated), the EC50 is below 120 nM.
For the compound `N#C/C(=N/Nc1ccc(OC(F)(F)F)cc1)C(N)=S`, the EC50 was > 15000 nM (inactive).
To `O=C(Nc1nnc(COc2ccc(F)cc2)s1)c1ccco1` belongs 7770 nM; to `O=C(Nc1nnc(-c2ccc3c(c2)CCCC3)o1)c1ccccc1`, 484 nM.
Take `O=C(CCl)N1c2ccccc2CCc2ccccc21`: the EC50 was 1010 nM.
With `O=C1NC(=O)/C(=C\c2ccc(Br)o2)S1`, the 50% effective concentration (EC50) was 1720 nM.
In the case of `O=C(Nc1ccccc1N1CCOCC1)c1ccc(S(=O)(=O)NCc2ccco2)cc1`, the EC50 is > 15000 nM (inactive).
Take `O=C(Oc1c(Cl)cc(Cl)c2cccnc12)N1CCOCC1`: the EC50 is > 15000 nM (inactive).
On to `Cc1cc(-c2cc(C(=O)O)c3ccccc3n2)c(C)s1`, for which the EC50 is 2270 nM.
Consider `Cc1noc2ncnc(Sc3ccc(Br)cc3)c12`, for which the EC50 was 2640 nM.
As to `Clc1ccc(OCCn2ccnc2)c2ccccc12`, the 50% effective concentration (EC50) is 2910 nM.
Regarding `O=C(N/N=C/c1ccc(O)c2ncccc12)c1cccc(Br)c1`, the EC50 is 1200 nM.
For `Cc1ccc(-n2nc(C)c3c(C)cc(=O)[nH]c32)cc1`, the concentration for a half-maximal effect (EC50) was 2080 nM.
To `CC(C)C(Sc1nc(-c2ccccc2)cc(-c2ccccc2)c1C#N)C(=O)O` (configuration not stated) belongs 3770 nM; to `S=c1[nH]nc(C2CCCCC2)n1/N=C/c1ccc(Br)s1`, 1940 nM; to `Cn1c(NN)nc2sc3c(c2c1=O)CCC3`, 10100 nM.
In the case of `O=C(Oc1c(CN2CCOCC2)cc(Cl)c2cccnc12)c1ccccc1`, the EC50 is 2650 nM.
For `CCCCC(=O)NNC(=S)NC(=O)c1ccc(C)cc1`, the EC50 is 7760 nM.
The figure for `O=c1c2ccc(Cl)cc2nc(-c2ccc([N+](=O)[O-])cc2)n1O` is 1100 nM.
To `COC(=O)c1c(C)n(-c2ccccc2)c2ccc(O)cc12` belongs 3160 nM.
To `CCc1ccc(OCC(=O)NNC(=S)NC(=O)C2CCCCC2)c(Br)c1` belongs 1790 nM.
Consider `CCn1c(Sc2nc(C)nc3scc(-c4cccs4)c23)n[nH]c1=O`, for which the 50% effective concentration (EC50) is 703 nM.
Turning to `Oc1c(C(Nc2nccs2)c2ccc(C(F)(F)F)cc2)ccc2cccnc12` (configuration not stated), the EC50 is 601 nM.
The figure for `Cc1ccnc(NC(c2cccnc2)c2ccc3cccnc3c2O)c1` (configuration not stated) is 13100 nM; for `CC(=O)c1cccc(NC(=S)NC(=O)c2ccc(C)cc2)c1` it is 3850 nM.
Regarding `COc1ccc(-c2csc(-c3ccccc3)n2)c(OC)c1`, the EC50 is 3810 nM.
To `OCCN1CCN(C(=S)NC2CCCC2)CC1` belongs > 16000 nM (inactive); to `CCN(CC)c1nc(-c2ccccn2)nc(-c2ccccc2)c1C#N`, 4190 nM.
For `Cc1ccc(/C=C/C(=O)c2ccccc(=O)c2O)cc1C`, the EC50 is 2720 nM.
To `O=C(N/N=C/c1ccccn1)c1cc(-c2ccc(Cl)cc2)nc2ccccc12` belongs 4330 nM; to `CCOc1ccc(N=Nc2ccc(O)c3ncccc23)cc1`, 1150 nM.
As to `O=C(Nc1cccc(-c2nc3ccccc3s2)c1)c1cc(-n2cnnc2)ccc1Cl`, the EC50 is 1510 nM.
To `c1cnc2c(c1)ccc1cccnc12` belongs 10500 nM and 9350 nM; to `COc1ccc(C(=O)Nc2ccccc2C(=O)Nc2ccccc2C(=O)O)cc1`, 7540 nM.
As for `Oc1c(C(c2ccccn2)N2CCOCC2)ccc2cccnc12` (configuration not stated), the EC50 is 4860 nM.
As to `O=C(CSc1nc(-c2ccccc2)cs1)Nc1nccs1`, the EC50 is > 16000 nM (inactive).
To `COc1cccc(/C=N/Nc2cc(-n3nc(C)cc3-c3ccccc3)ncn2)c1O` belongs 662 nM; to `CC(C)(C)c1ccc(Cc2n[nH]c(=S)[nH]c2=O)cc1`, 351 nM.
On to `CCCn1nc([N+](=O)[O-])c(C(C#N)c2nc3ccccc3s2)c(Cl)c1=O` (configuration not stated), for which the EC50 was 1400 nM.
Turning to `Cc1cccc(NC(=O)CSC(N)=O)c1C`, the EC50 is > 15000 nM (inactive).
For `Cc1ccc2nc(Cl)c3nnnn3c2c1`, the EC50 was 230 nM.
As for `Cc1scc(C(=O)N/N=C/c2ccc([N+](=O)[O-])o2)c1C`, the 50% effective concentration (EC50) is 884 nM.
For the compound `Cc1cc(C)n(-c2nc(NCCN(C)C)c3c4c(sc3n2)CCCC4)n1`, the EC50 was 5130 nM.
Take `CC(C)CCNC(=O)C(c1ccco1)N(Cc1ccc(F)cc1)C(=O)c1snc(C(N)=O)c1N` (configuration not stated): the EC50 was 15800 nM.
Consider `CCOC(=O)CC(/C(C)=N\O)c1ccccc1` (configuration not stated), for which the EC50 is > 16000 nM (inactive).
As for `Cc1cc([N+](=O)[O-])c2ccccc2[n+]1[O-]`, the EC50 is 195 nM.
For `O=c1c2ccc(Cl)cc2nc(-c2cccc(C(F)(F)F)c2)n1O`, the EC50 was 832 nM.
`Clc1ccccc1-c1nc2ccccc2c2nc3ccccc3n12`: the EC50 was 204 nM.
Regarding `C/C(=N\NC(=O)c1cc(-c2cccs2)nc2ccccc12)c1ccccn1`, the EC50 was 1820 nM.
For `c1ccc(-c2cccc(-c3ccccn3)n2)nc1`, the EC50 is 521 nM.
`Oc1c(Br)cc(Br)cc1CNc1cccc2cccnc12`: the EC50 is > 15000 nM (inactive).
The figure for `NC(N)=N/N=C/c1ccc(N(c2ccccc2)c2ccccc2)cc1` is > 15000 nM (inactive); for `O=C(NNC(=S)Nc1ccc(Cl)cc1)c1ccccc1OC(F)F` it is 2600 nM.
As to `O=C(NC1CCCCC1)C(c1ccc2ncccc2c1)N(Cc1ccc(F)cc1)C(=O)c1ccc2c(c1)OCCO2` (configuration not stated), the EC50 is > 15000 nM (inactive).
Regarding `Cc1onc(-c2ccccc2Cl)c1C(=O)Nc1sc2c(c1C#N)CCC2`, the EC50 was below 120 nM.
For `CCOC(=O)c1cc2c(=O)n3ccccc3nc2n(CCOC)c1=NC(=O)c1ccncc1`, the EC50 was > 15000 nM (inactive).
